Where two headings read alike, the source gives them in different places. Each block holds one molecule with its values, some of them ahead of it.
Legend:
[1] = biological target: CYP 2C19 (Homo sapiens, UniProt P33261); experiment: Kinetics of fluorogenic substrates with CYP 2C19; assay type: biochemical
[2] = biological target: T1, CYP 1A2 (Homo sapiens, UniProt P05177); experiment: Kinetics of fluorogenic substrates with CYP 1A2; assay type: biochemical
T1 sequence (P05177 1-516): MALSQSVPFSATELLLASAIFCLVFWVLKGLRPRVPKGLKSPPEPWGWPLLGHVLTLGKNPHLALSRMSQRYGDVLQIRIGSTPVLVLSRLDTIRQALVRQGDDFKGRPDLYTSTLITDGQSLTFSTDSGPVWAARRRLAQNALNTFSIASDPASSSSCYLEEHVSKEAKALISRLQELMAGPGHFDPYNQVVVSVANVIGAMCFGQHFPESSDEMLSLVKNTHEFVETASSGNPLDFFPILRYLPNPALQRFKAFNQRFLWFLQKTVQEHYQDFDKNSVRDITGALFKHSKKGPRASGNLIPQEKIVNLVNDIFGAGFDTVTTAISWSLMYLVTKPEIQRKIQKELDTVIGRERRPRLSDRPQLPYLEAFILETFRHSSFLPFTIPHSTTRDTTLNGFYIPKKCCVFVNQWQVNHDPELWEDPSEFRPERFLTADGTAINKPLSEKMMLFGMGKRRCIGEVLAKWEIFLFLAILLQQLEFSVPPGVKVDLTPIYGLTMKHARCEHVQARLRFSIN

[3] = biological target: T2, CYP 2B6 (Homo sapiens, UniProt P20813)
T2 sequence (P20813 1-491): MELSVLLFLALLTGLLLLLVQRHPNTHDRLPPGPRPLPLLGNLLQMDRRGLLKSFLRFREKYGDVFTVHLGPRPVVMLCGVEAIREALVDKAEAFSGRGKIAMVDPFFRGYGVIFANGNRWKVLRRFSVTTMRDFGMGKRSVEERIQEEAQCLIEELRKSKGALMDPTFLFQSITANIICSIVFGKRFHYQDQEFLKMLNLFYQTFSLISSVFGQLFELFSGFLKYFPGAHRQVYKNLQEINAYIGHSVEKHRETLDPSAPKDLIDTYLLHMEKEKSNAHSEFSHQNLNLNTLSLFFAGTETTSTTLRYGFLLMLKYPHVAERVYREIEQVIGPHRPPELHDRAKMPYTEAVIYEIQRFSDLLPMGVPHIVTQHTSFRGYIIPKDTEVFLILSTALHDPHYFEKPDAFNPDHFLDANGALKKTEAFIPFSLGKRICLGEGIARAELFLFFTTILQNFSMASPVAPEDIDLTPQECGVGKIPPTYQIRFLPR

[4] = biological target: CYP 2C9 (Homo sapiens, UniProt P11712); experiment: Kinetics of fluorogenic substrates with CYP 2C9; assay type: biochemical; details: for v (1.25 uM), turnover rate at 1.25 μM: CYP 2C9, substrate 1.25 uM; for v (10 uM), turnover rate at 10 μM: CYP 2C9, substrate 10 uM
Sequence of CYP 2C9 (P11712 whole entry): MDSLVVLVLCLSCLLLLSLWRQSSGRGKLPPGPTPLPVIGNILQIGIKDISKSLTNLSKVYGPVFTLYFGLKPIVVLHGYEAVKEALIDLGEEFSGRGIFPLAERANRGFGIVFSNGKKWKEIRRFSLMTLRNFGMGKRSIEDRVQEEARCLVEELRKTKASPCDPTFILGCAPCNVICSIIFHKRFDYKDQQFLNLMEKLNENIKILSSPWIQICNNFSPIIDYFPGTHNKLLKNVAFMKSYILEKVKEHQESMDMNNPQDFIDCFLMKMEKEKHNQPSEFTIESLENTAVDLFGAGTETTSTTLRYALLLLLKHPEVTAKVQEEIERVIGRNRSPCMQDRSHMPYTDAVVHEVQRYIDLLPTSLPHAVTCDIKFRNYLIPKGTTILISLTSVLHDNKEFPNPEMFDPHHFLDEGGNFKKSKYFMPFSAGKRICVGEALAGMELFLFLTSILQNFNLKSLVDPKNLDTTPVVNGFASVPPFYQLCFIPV

[5] = biological target: CYP 2D6 (Homo sapiens, UniProt P10635); experiment: Kinetics of fluorogenic substrates with CYP 2D6; assay type: biochemical
Sequence of CYP 2D6 (P10635 whole entry): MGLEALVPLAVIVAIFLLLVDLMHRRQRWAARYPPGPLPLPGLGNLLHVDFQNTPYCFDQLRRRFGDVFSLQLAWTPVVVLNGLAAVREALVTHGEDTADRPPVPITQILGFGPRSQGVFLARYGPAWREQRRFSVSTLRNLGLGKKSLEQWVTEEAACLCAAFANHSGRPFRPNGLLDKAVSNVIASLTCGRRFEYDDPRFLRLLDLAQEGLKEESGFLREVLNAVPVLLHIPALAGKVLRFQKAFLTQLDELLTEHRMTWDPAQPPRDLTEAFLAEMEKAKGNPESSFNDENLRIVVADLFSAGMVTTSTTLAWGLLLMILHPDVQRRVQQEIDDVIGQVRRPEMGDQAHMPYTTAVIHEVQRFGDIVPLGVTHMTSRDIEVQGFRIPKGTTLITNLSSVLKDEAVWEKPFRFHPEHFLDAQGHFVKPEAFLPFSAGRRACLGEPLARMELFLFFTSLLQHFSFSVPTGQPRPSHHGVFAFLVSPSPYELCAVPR

[6] = biological target: T2, CYP 2B6; experiment: Kinetics of fluorogenic substrates with CYP 2B6; details: for v (1.25 uM), turnover rate at 1.25 μM: CYP 2B6, substrate 1.25 uM; for v (10 uM), turnover rate at 10 μM: CYP 2B6, substrate 10 uM
[7] = biological target: T3, CYP 3A4 (Homo sapiens, UniProt P08684); experiment: Kinetics of fluorogenic substrates with CYP 3A4; assay type: biochemical
T3 construct: NADPH regenerating system
T3 sequence (P08684 whole entry): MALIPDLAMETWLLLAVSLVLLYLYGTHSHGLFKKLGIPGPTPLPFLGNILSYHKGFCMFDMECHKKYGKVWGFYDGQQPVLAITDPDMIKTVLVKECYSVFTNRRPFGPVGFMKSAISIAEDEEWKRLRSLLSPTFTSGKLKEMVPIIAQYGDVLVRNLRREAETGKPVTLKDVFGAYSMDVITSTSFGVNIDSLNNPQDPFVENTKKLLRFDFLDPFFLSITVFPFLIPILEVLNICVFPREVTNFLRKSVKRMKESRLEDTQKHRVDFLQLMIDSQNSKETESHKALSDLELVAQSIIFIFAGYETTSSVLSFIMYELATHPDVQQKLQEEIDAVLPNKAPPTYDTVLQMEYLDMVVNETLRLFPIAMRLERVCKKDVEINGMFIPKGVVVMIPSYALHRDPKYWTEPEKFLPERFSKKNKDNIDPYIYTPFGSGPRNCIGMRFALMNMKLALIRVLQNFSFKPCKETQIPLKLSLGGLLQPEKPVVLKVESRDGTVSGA
Excerpt: Whichever of the four abstractable hydrogen atoms (designated H^1 and H^2 in this representation of BOMR) is removed in the initial reaction step, with reference to Reaction Scheme 1 of FIG. 1, the hydroxylation product will spontaneously decompose to the free resorufin dye. In addition, the benzyloxy group, attached to the carbon carrying the two hydrogens designated H^2, contributes an inductive electronic effect on that carbon, which can stabilize the radical formed during abstraction of one of the H^2 hydrogens by a cytochrome P450.
Optimization of assay conditions was, and is preferably, accomplished through statistically validated Design of Experiments methodologies, using the commercial software package "Design-Expert®" produced by Stat-Ease® Inc. The data shown in FIGS. 4 and 5 were obtained with initial optimization.
For further understanding these terms in the context of this invention, attention is directed to FIG. 4 and the analysis of FIG. 4.

Sequence of CYP 2C19 (P33261 whole entry): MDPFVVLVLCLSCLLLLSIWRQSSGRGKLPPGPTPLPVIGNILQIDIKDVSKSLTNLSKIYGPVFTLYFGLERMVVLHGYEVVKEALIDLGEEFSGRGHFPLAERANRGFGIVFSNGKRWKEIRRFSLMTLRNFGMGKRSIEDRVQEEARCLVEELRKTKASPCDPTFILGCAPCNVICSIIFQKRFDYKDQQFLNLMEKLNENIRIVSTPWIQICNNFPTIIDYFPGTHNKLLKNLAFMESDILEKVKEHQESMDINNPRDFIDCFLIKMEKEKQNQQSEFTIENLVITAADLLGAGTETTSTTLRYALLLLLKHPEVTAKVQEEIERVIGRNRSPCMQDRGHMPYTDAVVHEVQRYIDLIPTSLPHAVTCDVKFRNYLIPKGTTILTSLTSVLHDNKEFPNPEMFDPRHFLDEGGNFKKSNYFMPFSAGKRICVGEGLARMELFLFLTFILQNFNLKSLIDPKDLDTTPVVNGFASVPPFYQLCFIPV

Structure (SMILES): CCOc1ccc2cc(C#N)c(=O)oc2c1 [3CEC, 3-Cyano-7-ethoxycoumarin, reference compound]
- kcat ([1]; CYP 2C19): 0.0283 s⁻¹
- kcat/Km ([1]; CYP 2C19): 671 M⁻¹ s⁻¹
- type of kinetics ([1]; CYP 2C19): Michaelis-
- v (1.25 uM), turnover rate at 1.25 μM ([1]; CYP 2C19, substrate 1.25 uM): 0.05 min⁻¹
- v (10 uM), turnover rate at 10 μM ([1]; CYP 2C19, substrate 10 uM): 0.34 min⁻¹
- kcat ([2]; CYP 1A2): 0.733 s⁻¹
- kcat/Km ([2]; CYP 1A2): 28205 M⁻¹ s⁻¹
- type of kinetics ([2]; CYP 1A2): Michaelis-
- v (1.25 uM), turnover rate at 1.25 μM ([2]; CYP 1A2, substrate 1.25 uM): 1.73 min⁻¹
- v (10 uM), turnover rate at 10 μM ([2]; CYP 1A2, substrate 10 uM): 12.55 min⁻¹

- kcat [3]: 0.0483 s⁻¹
- kcat/Km [3]: 34524 M⁻¹ s⁻¹
- type of kinetics [3]: Michaelis-
- v (1.25 uM), turnover rate at 1.25 μM [3]: 1.63 min⁻¹
- v (10 uM), turnover rate at 10 μM [3]: 2.53 min⁻¹
- Km ([3]; cyp 2b6): 1.4 µM
- kcat ([4]; CYP 2C9): 0.0067 s⁻¹
- type of kinetics ([4]; CYP 2C9): Michaelis-
- v (1.25 uM), turnover rate at 1.25 μM [4]: 0.01 min⁻¹
- v (10 uM), turnover rate at 10 μM [4]: 0.03 min⁻¹
- kcat ([5]; CYP 2D6): 0.005 s⁻¹
- type of kinetics ([5]; CYP 2D6): Michaelis-
- v (1.25 uM), turnover rate at 1.25 μM ([5]; CYP 2D6, substrate 1.25 uM): 0.03 min⁻¹
- v (10 uM), turnover rate at 10 μM ([5]; CYP 2D6, substrate 10 uM): 0.10 min⁻¹
Structure (SMILES): COc1ccc2c(C(F)(F)F)cc(=O)oc2c1 [MFC, 7-Methoxy-4-trifluoromethylcoumarin, reference compound]

- conversion to the same fluorescent product vs the most closely structurally-related substrate ([6]; CYP 2B6): less efficiently converted
- type of kinetics ([6]; CYP 2B6): not Michaelis-
- v (1.25 uM), turnover rate at 1.25 μM [6]: 0.54 min⁻¹
- v (10 uM), turnover rate at 10 μM [6]: 0.71 min⁻¹
- conversion to the same fluorescent product vs the most closely structurally-related substrate ([4]; CYP 2C9): more efficient conversion
- kcat ([4]; CYP 2C9): 0.0017 s⁻¹
- type of kinetics ([4]; CYP 2C9): Michaelis-
- v (1.25 uM), turnover rate at 1.25 μM [4]: 0.00 min⁻¹
- v (10 uM), turnover rate at 10 μM [4]: 0.07 min⁻¹
Structure (SMILES): COCOc1ccc2c(C(F)(F)F)cc(=O)oc2c1 [MOMFC, 7-methyloxymethyloxy-4-trifluoromethylcoumarin]

- type of kinetics ([6]; CYP 2B6): not Michaelis-
- v (1.25 uM), turnover rate at 1.25 μM [6]: 0.42 min⁻¹
- v (10 uM), turnover rate at 10 μM [6]: 0.42 min⁻¹
- kcat ([7]; CYP 3A4): 0.0017 s⁻¹
- kcat/Km ([7]; CYP 3A4): 377 M⁻¹ s⁻¹
- type of kinetics ([7]; CYP 3A4): Michaelis-
- turnover rate (kcat) ([7]; CYP 3A4, FIG. 4 data): 0.00167 s⁻¹
- v (1.25 uM), turnover rate at 1.25 μM ([7]; CYP 3A4, substrate 1.25 uM): 0.02 min⁻¹
- v (10 uM), turnover rate at 10 μM ([7]; CYP 3A4, substrate 10 uM): 0.08 min⁻¹
Structure (SMILES): O=c1ccc2nc3ccc(OCc4ccccc4)cc3oc-2c1 [BR, Benzylresorufin, reference compound]

From patent publication US6143492A, “Optical molecular sensors for cytochrome P450 activity” (Aurora Biosciences Corporation, priority 1999, dated 2000)
